From patent US8642028B2, “Recombinant adenoviruses encoding the specific iodine transporter (NIS)” (Aventis Pharma S.A., priority 1999, dated 2014)

Key:
NIS [1] = biological target: T1, NIS (Rattus norvegicus, UniProt Q63008); experiment: Inhibition by perchlorate of iodine transport by NIS in FRTL-5 cells; assay type: cell-based
T1 construct: expressed in transfected cells; host or cells: SiHa human epithelial tumor cells (ATCC HTB-35) infected with Ad-NIS at a multiplicity of infection of 10
T1 sequence (Q63008 1-618): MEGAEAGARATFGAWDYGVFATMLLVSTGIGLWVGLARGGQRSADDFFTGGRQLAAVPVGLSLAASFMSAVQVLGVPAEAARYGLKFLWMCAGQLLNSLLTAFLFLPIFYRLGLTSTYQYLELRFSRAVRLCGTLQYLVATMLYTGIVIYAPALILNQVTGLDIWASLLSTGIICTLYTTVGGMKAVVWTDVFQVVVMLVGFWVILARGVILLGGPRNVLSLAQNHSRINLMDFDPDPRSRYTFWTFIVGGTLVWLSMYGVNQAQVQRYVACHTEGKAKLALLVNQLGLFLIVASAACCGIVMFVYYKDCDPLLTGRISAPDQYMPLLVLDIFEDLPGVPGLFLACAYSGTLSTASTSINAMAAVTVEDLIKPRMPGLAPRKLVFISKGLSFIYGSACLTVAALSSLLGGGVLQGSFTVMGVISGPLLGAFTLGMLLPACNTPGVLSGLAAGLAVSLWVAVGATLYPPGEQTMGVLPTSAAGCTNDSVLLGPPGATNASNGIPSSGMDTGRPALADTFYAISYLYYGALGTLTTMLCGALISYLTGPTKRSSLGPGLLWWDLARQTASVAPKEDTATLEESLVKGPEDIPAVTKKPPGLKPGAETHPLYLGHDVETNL
Method: (§1) The cells are infected with the Ad-NIS vector at a multiplicity of infection of 10. The capacity of the cells to capture iodine is tested 28 to 29 h after infection according to the Weiss et al. method [Endocrinology (1984) 114: 1090-1098]. The infected cells are washed with HBSS buffer and placed in contact for the time indicated in FIG. 3 with 0.5 ml of HBSS buffer containing 0.1 μCi of iodine-125. At the end of the contact time, the cells are washed once with cold HBSS buffer and then incubated for 20 min with cold ethanol. The quantity of iodine-125 captured by the cells is determined by assaying the radioactivity of the ethanol, with a gamma counter.
(§2) The specific inhibition of iodine transport by NIS was tested in the presence of perchlorate. NaCIO4 was added to the HBSS buffer containing iodine-125 so as to obtain final concentrations of 30, 300 and 3000 μM. The contact time between the cells and the iodine-125 is 15 minutes. The results are expressed as number of counts for the same number of cells.

NIS [2] = biological target: T1, NIS; experiment: Inhibition by perchlorate of iodine transport by NIS in SiHa cells infected with Ad-NIS; assay type: cell-based
Method: as §1, §2

Compound: [O-][Cl+3]([O-])([O-])O [NaCIO4]
- inhibition at 30 µM (NIS [1]; FRTL-5, FRTL-5 cells, 30 μM NaCIO4, 15 min contact with iodine-125, read-out: inhibition of the fixing of iodine): > 90%
- inhibition of the fixing of iodine (NIS [1]; FRTL-5 cells, high NaCIO4 concentrations, 15 min contact with iodine-125): 95%
- inhibitor concentration required for the same level of inhibition, SiHa cells relative to FRTL-5 cells (NIS [2]; SiHa cells infected with Ad-NIS versus FRTL-5 cells): 10 times
- inhibition at 30 µM (NIS [2]; SiHa cells infected with Ad-NIS, 30 μM NaCIO4, 15 min contact, read-out: inhibition of the fixing of iodine): 40%
- inhibition at 300 µM (NIS [2]; SiHa cells infected with Ad-NIS, 300 μM NaCIO4, 15 min contact, read-out: inhibition of the fixing of iodine): 92%
- inhibition at 3000 µM (NIS [2]; SiHa cells infected with Ad-NIS, 3 mM NaCIO4, 15 min contact, read-out: inhibition of the fixing of iodine): 98%
